pIC50: −log10 of the molar value.
Columns and labels:
Raf kinase = Raf kinase activity, phosphorylation of MBP; details: for phosphorylation of the Raf kinase substrate MBP: at concentrations below 10 μM
MEK1/2 = experiment: Competitive pull-down with JTP-74100-conjugated resin from HT-29 cytosolic fraction; type: binding, human; details: 46-kDa band on SDS-PAGE
HT-29 cells [1] = experiment: Growth inhibition of HT-29 cells by [3H]-TdR incorporation; type: cell-based; details: Homo sapiens, [3H]-TdR incorporation during last 6 h of 3-day culture, read-out: growth inhibitory activity (IC50)
Experimental: HT-29 cells were cultured in McCoy's 5a medium supplemented with 10% (v/v) fetal bovine serum and antibiotics. ACHN and HEK293T cells were maintained in Dulbecco's modified Eagle's medium supplemented with 10% (v/v) fetal bovine serum and antibiotics in a humidified CO2 incubator. The growth inhibitory activities of compounds toward HT-29 cells were determined by [^3H]-TdR incorporation for the last 6 h of a 3-day culture period. […] The lysed cells were then homogenized by 20 strokes of a loose-fitting Dounce homogenizer and centrifuged for 6 min at 4,300×g to separate the nuclei from the cytoplasmic fraction. The cytoplasmic fraction was ultracentrifuged for 1 h at 150,000×g and the supernatant was dialyzed against a buffer containing 20 mM HEPES (pH 7.9), 20% (v/v) glycerol, 0.1 M KCl, 0.2 mM EDTA, 0.5 mM PMSF and 0.5 mM DTT for 5 h at 4°C. After centrifugation for 20 min at 15,000×g, the supernatant was collected as the cytosolic fraction.

B-Raf = B-Raf (Homo sapiens, UniProt P15056, V600E); experiment: biochemical
[2] = tested on: HT-29 cells and ACHN cells; experiment: Western blot of downstream signaling molecules (c-Myc, cyclin D1, p15INK4b, p27KIP1); type: cell-based, human; details: 24 h treatment
Experimental: (§1) Cultured cells were treated with various compounds and then lysed in lysis buffer (50 mM Tris-HCl pH 7.4, 150 mM NaCl, 1 mM EGTA, 1 mM Na3Vo4, 1% Triton X-100 and EDTA-free protease inhibitor cocktail). The cell lysates were collected and centrifuged, and the supernatants were subjected to SDS-PAGE. After the electrophoresis, the proteins were transferred onto PVDF membranes at 1 mA/cm^2 for 1 h. The membranes were incubated in blocking solution (Blockace; Nacalai Tesque, Kyoto, Japan) and washed with PBS containing 0.1% Tween 20 (PBS/T). The membranes were then incubated with the primary antibody, washed three times with PBS/T and incubated with the secondary antibody. After washing with PBS/T, the membranes were incubated with ECL-Plus or ECL-Advanced western blot reagents (GE Healthcare, Little Chalfont, Buckinghamshire, UK) for 5 min, exposed to ECL Hyperfilm and visualized using a LAS3000 imager (Fujifilm).
Supplemental Table: Identif ied Peptide Sequences of 46 kDa Proteins.
ACCESSION Start - End Obsrved Mr(expt) Mr(calc) Sequence
Supp lemental Figure: Alterations of downstream signaling molecules in cancer cells by
(A, B) HT-29 cells (A) and ACHN cells (B) were treated with the
indicated concentrations of each compound for 24 h,same as the experiment of F ig u re 3A. And
the cell lysates were analyzed by western blotting using antibodies specific to c-M yc (Upstate […]

ACHN cells = experiment: Western blot of MEK and ERK phosphorylation in ACHN cells; type: cell-based, human; details: ACHN cells (K-Ras mutated, B-Raf unmutated), 24 h
Experimental: as §1

[3] = cited from earlier work
Inactive u-MEK (K97R) = Inactive u-MEK (K97R) (Homo sapiens, UniProt Q02750, K97R); experiment: Temperature-dependent CD analysis of u-MEK; details: 10 μM compound, 3 μM u-MEK; u-MEK alone 50.2 °C
p-MEK1 = biological target: T1, p-MEK1 (Homo sapiens, UniProt Q02750); experiment: Kinetic (double-reciprocal) analysis of MEK inhibition in the MEK-ERK reaction; type: biochemical; details: p-MEK-ATP complex, double-reciprocal plots vs ATP
T1 construct: purchased Upstate Technology (Waltham, MA)

various cancer cells = experiment: Western blot of MEK and ERK phosphorylation in various cancer cell lines; type: cell-based; details: 2 h
Experimental: as §1

HT-29 cells [4] = experiment: Western blot of MEK and ERK phosphorylation in HT-29 cells; type: cell-based, human; details: for MEK phosphorylation status after pulse treatment: 2 h treatment then washout
[5] = set-up: method as in PMID 22805291; details: orally administered, cancer patients, phase I study; cited from earlier work
c-Raf = c-Raf (Homo sapiens, UniProt P04049); experiment: Raf/MBP kinase assay, c-Raf
Sequence of c-Raf (P04049 306-648): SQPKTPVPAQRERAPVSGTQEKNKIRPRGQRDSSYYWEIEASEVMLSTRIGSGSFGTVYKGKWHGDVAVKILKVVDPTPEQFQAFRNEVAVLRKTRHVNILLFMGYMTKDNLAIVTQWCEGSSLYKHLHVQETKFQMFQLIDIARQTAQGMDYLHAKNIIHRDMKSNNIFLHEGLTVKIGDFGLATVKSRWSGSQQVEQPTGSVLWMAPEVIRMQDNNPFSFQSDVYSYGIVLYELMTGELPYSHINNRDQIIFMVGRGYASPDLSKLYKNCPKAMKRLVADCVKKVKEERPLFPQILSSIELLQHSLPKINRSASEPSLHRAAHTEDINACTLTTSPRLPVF

Sequence of B-Raf (P15056 whole entry V600E): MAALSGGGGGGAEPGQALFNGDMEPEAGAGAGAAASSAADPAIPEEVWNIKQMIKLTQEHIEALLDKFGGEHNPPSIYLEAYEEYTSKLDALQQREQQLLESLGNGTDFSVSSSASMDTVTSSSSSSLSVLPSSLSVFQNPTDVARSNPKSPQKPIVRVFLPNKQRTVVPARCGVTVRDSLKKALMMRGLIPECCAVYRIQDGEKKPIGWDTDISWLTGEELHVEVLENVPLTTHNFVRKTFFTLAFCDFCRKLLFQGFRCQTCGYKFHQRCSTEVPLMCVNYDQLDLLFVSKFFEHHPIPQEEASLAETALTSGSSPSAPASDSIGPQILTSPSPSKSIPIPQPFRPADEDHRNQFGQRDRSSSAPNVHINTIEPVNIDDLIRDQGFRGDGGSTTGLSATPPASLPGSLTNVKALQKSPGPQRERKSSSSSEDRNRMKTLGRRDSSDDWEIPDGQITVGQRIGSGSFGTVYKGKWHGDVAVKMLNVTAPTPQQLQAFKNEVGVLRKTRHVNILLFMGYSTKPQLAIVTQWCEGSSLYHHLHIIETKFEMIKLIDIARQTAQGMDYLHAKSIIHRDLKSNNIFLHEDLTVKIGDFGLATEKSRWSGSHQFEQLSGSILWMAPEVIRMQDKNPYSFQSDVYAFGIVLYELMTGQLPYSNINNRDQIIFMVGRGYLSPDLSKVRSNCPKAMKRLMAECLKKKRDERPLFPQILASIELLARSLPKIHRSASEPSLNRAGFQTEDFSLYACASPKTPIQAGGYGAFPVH

CNC(=O)c1cc(Oc2ccc(NC(=O)Nc3ccc(Cl)c(C(F)(F)F)c3)cc2)ccn1 [BAY 43-9006]
concentration that inhibited Raf kinase activity (Raf kinase; same conditions as Raf/MBP assay, data not shown): 0.1 µM

COc1ccccc1Nc1cc(=O)n(C)c2c1c(=O)n(-c1ccccc1)c(=O)n2-c1ccccc1 [JTP-65634]
concentration needed to clearly compete with JTP-74100-immobilized resin for binding to MEK (MEK1/2): > 100 µM
pIC50 (HT-29 cells [1]): < 5.00

Cn1c(=O)cc(Nc2ccc(I)cc2F)c2c(=O)n(C3CC3)c(=O)n(-c3cccc(NS(C)(=O)=O)c3)c21 [JTP-70945]
concentration needed to clearly compete with JTP-74100-immobilized resin for binding to MEK (MEK1/2): above 10 μM
pIC50 (HT-29 cells [1]): 9.41

CC(=O)Nc1cccc(-n2c(=O)n(C3CC3)c(=O)c3c(Nc4ccc(I)cc4F)n(C)c(=O)c(C)c32)c1 [JTP-74057]
pIC50 (B-Raf): < 5.00
concentration at which accumulation of p15INK4b and p27KIP1 and decrease of c-Myc and Cyclin D1 were observed [2]: 1 nM
accumulation of p-MEK (ACHN cells): did not significantly, or slightly if any, induce accumulation of p-MEK
ERK phosphorylation in grafted cancer tissues ([3]; animals, after oral administration): inhibited ERK phosphorylation
half-life in the blood ([3]; in vivo, po): long half-life
Tm of u-MEK with compound (CD) (Inactive u-MEK (K97R)): 57.5 °C
Ki' (MEK/ATP vs. compound) (p-MEK1): 290 ± 80 nM
p-MEK levels in HCT-15, LS-174T, T84 and LoVo cells (various cancer cells; 100 nM): did not decrease or decrease to a lesser extent
p-MEK levels in HT-29, COLO-205, HCT-116, SW480 and SW620 cells (various cancer cells; 100 nM (HT-29 10 nM)): decreased
ERK phosphorylation in various cancer cell lines (various cancer cells; 100 nM (HT-29 10 nM), 10 cell lines): efficiently inhibited in almost all cell lines, except for COLO-320DM
time at which p-MEK level was decreased (HT-29 cells [4]; 10 nM): ≤ 15 min
time at which p-MEK was almost ablated (HT-29 cells [4]; 10 nM): 30 min
MEK phosphorylation status after pulse treatment (HT-29 cells [4]): disappearance of p-MEK was sustained for a considerable period
ERK phosphorylation (HT-29 cells [4]; 24 h): inhibited ERK phosphorylation
p-MEK level (HT-29 cells [4]; 24 h): decreased the p-MEK level
t1/2 [5]: about 4 days
phosphorylation of the Raf kinase substrate MBP (Raf kinase): not inhibited
pIC50 (HT-29 cells [1]): 9.24
pIC50 (c-Raf): < 5.00

O=C(NOC[C@H](O)CO)c1ccc(F)c(F)c1Nc1ccc(I)cc1F [PD0325901, reference compound]
concentration at which accumulation of p15INK4b and p27KIP1 and decrease of c-Myc and Cyclin D1 were observed [2]: 10 nM
accumulation of p-MEK (ACHN cells): induced significant accumulation of p-MEK
time for p-ERK level to return to nearly normal level after removal (HT-29 cells [4]; 100 nM for 2 h then washout): ≤ 1 h
MEK phosphorylation status after pulse treatment (HT-29 cells [4]): did not affect the MEK phosphorylation status
ERK phosphorylation (HT-29 cells [4]; 24 h): inhibited ERK phosphorylation
phosphorylation of the Raf kinase substrate MBP (Raf kinase): not inhibited
pIC50 (HT-29 cells [1]): 8.47

N#CC(=C(/N)Sc1ccccc1N)/C(C#N)=C(\N)Sc1ccccc1N [U0126, reference compound]
concentration needed to clearly compete with JTP-74100-immobilized resin for binding to MEK (MEK1/2): 100 µM

CCCCC(=O)NCCC(=O)Nc1cccc(-n2c(=O)n(C3CC3)c(=O)c3c(Nc4ccccc4F)n(C)c(=O)c(C)c32)c1 [pentanoyl JTP-74099]
pIC50 (HT-29 cells [1]): 6.08

CCCCC(=O)NCCC(=O)Nc1cccc(-n2c(=O)n(C3CC3)c(=O)c3c(Nc4ccc(I)cc4F)n(C)c(=O)c(C)c32)c1 [pentanoyl JTP-74100]
pIC50 (HT-29 cells [1]): 8.68

Reference: PMC3681492, “Identification and Characterization of a Novel Chemotype MEK Inhibitor Able to Alter the Phosphorylation State of MEK1/2” (Oncotarget, 2012)
